The target in one experiment is T1, human SGLT2 (Homo sapiens, UniProt P31639).
T1 construct: A full-length cDNA clone expressing human SGLT2 (GenScript Corporation) was subcloned
T1 sequence (P31639 1-672): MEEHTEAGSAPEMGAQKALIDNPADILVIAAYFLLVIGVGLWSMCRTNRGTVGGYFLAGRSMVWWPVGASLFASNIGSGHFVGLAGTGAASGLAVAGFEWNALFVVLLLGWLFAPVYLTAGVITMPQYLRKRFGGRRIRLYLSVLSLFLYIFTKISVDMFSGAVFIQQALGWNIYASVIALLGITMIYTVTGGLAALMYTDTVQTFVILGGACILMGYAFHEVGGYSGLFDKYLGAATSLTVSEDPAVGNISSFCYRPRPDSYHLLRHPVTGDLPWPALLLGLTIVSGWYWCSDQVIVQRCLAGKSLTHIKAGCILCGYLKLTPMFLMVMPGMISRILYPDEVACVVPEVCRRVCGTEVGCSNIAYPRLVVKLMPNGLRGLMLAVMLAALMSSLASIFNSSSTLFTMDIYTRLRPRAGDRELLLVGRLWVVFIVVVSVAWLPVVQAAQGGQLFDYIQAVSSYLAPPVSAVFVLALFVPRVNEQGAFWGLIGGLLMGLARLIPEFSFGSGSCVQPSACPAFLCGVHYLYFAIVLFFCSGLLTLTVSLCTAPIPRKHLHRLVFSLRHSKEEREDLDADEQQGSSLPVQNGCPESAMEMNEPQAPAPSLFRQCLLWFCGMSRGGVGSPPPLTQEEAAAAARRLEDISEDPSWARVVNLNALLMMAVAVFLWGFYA
Put plainly: Methyl-α-D-[U-14C]glucopyranoside uptake assay, cells stably expressing human SGLT2. Type of experiment: cell-based. The following applies: HEK293.ETN cells expressing human SGLT2, 1.5 h incubation. From the text:
A full-length cDNA clone expressing human SGLT2 (GenScript Corporation) was subcloned into […] and Not I sites of pEAK15 expression vector. Clones harboring the cDNA inserts were identified by restriction analysis.
Plasmid containing human SGLT2 was linearized with Nsi I and purified by agarose gel electrophoresis. Using Lipofectamine 2000 Transfection Reagent (Invitrogen Corporation), DNA was transfected into HEK293.ETN cells and cultured in Dulbecco's Modified Eagle Medium (DMEM) containing 10% fetal bovine serum (FBS) at 37° C. under 5% CO2 for 24 h. Transfectants were selected in the same growth medium supplemented with puromycin (Invitrogen Corporation) for two weeks. Puromycin-resistant cells were recovered and seeded on a fresh 96-well plate (single cell per well) and cultured in the presence of puromycin until cells became confluent. Puromycin-resistant clones were evaluated for SGLT2 activity in the methyl-α-D-[U-^14C]glucopyranoside uptake assay described below.
(§1) Cells expressing SGLT1 or SGLT2 were seeded on 96-well ScintiPlate scintillating plates (PerkinElmer, Inc.) in DMEM containing 10% FBS (1×10^5 cells per well in 100 μL medium) incubated at 37° C. under 5% CO2 for 48 h prior to the assay. Cells were washed twice with 150 μL of either sodium buffer (137 mM NaCl, 5.4 mM KCl, 2.8 mM CaCl2, 1.2 mM MgCl2, 10 mM tris(hydroxymethyl)aminomethane/N2-hydroxyethylpiperazine-N′-ethanesulfonic acid [Tris/Hepes], pH 7.2) or sodium-free buffer (137 mM N-methyl-glucamine, 5.4 mM KCl, 2.8 mM CaCl2, 1.2 mM MgCl2, 10 mM Tris/Hepes, pH 7.2). Test compound in 50 μL each of sodium or sodium-free buffer containing 40 μCi/L methyl-α-D-[U-^14C]glucopyranoside (Amersham Biosciences/GE Healthcare), either with (symbols in parentheses) or without (symbols without parentheses) 25% human serum, was added per well of a 96-well plate and incubated at 37° C. with shaking for either 2 h (SGLT1 assay) or 1.5 h (SGLT2 assay). Cells were washed twice with 150 μL of wash buffer (137 mM N-methylglucamine, 10 mM Tris/Hepes, pH 7.2) and methyl-α-D-[U-^14C]glucopyranoside uptake was quantitated using a TopCount scintillation counter (PerkinElmer, Inc.). Sodium-dependent glucopyranoside uptake was measured by subtracting the values obtained with sodium-free buffer from those obtained using sodium buffer (average of triplicate determinations).

In a further experiment the target is T2, human SGLT1 (Homo sapiens, UniProt P13866).
T2 construct: Full-length human SGLT1 cDNA on pDream2.1 expression vector was obtained from GenScript Corporation; host or cells: COS-7 cells (American Type Culture Collection)
T2 sequence (P13866 1-664): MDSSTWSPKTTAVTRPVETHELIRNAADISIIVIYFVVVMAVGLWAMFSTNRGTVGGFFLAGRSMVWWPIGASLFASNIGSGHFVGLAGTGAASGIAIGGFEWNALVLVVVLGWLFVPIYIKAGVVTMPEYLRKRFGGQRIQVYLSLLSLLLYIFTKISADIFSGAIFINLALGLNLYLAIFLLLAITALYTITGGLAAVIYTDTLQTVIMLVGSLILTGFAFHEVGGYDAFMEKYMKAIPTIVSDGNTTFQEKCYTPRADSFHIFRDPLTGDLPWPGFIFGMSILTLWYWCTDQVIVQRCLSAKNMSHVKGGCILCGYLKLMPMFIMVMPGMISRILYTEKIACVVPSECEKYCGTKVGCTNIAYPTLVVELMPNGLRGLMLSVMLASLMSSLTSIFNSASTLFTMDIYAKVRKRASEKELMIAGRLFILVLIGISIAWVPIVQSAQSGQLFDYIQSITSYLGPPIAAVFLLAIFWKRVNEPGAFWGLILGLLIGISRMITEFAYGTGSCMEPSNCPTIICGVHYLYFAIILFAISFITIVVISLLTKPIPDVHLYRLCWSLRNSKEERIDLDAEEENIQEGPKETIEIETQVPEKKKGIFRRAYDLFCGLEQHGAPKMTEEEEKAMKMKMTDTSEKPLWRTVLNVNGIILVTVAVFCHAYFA
Put plainly: Methyl-α-D-[U-14C]glucopyranoside uptake assay, COS-7 cells expressing human SGLT1. In kind it is cell-based. The settings on record: COS-7 cells expressing human SGLT1, 2 h incubation. Here is the method:
Full-length human SGLT1 cDNA on pDream2.1 expression vector was obtained from GenScript Corporation and propagated in Escherichia coli strain DH5α using Luria-Bertani (LB) medium containing ampicillin. Plasmid DNA was isolated using the QIAGEN Plasmid Midi Kit (QIAGEN Inc.). […] Transfected cells were stored in DMEM containing 10% dimethyl sulfoxide (DMSO) at −80° C.
as §1

[1] abbreviates: with 25% human serum (symbols in parentheses).
The mark [2] stands for this setting: without human serum (symbols without parentheses).

As for `C=CCOCc1cc(Cl)c(Cc2ccc(OCC=C)cc2)cc1[C@@H]1O[C@H](CO)[C@@H](O)[C@H](O)[C@H]1O` [Compound BB, (2S,3R,4R,5S,6R)-2-(5-(4-(allyloxy)benzyl)-2-(allyloxymethyl)-4-chlorophenyl)-6-(hydroxymethyl)tetrahydro-2H-pyran-3,4,5-triol], the IC50 at human SGLT2 (setting [1]) is less than 1000 nM; at human SGLT1 (setting [1]) it was more than 10000 nM.
Turning to `CC#CCOCc1cc(Cl)c(Cc2ccc(O)cc2)cc1[C@@H]1O[C@H](CO)[C@@H](O)[C@H](O)[C@H]1O` [Compound BC, (2S,3R,4R,5S,6R)-2-(2-((but-2-ynyloxy)methyl)-4-chloro-5-(4-hydroxybenzyl)phenyl)-6-(hydroxymethyl)tetrahydro-2H-pyran-3,4,5-triol], the figures for the IC50 at human SGLT2 (setting [1]) and at human SGLT1 (setting [1]) were less than 1000 nM and more than 10000 nM, respectively.
As for `C#CCOCc1cc(Cl)c(Cc2ccc(CC)cc2)cc1[C@@H]1O[C@H](COC(C)=O)[C@@H](O)[C@H](O)[C@H]1O` [Compound BD, ((2R,3S,4R,5R,6S)-6-(4-chloro-5-(4-ethylbenzyl)-2-((prop-2-ynyloxy)methyl)phenyl)-3,4,5-trihydroxytetrahydro-2H-pyran-2-yl)methyl acetate], the IC50 is less than 1000 nM at human SGLT2 (setting [2]) and more than 10000 nM at human SGLT1 (setting [2]).
Regarding `CC#CCOCCOc1cc(Cl)c(Cc2ccc(CC)cc2)cc1[C@@H]1O[C@H](CO)[C@@H](O)[C@H](O)[C@H]1O` [Compound BF, (2S,3R,4R,5S,6R)-2-(2-(2-(but-2-ynyloxy)ethoxy)-4-chloro-5-(4-ethylbenzyl)phenyl)-6-(hydroxymethyl)tetrahydro-2H-pyran-3,4,5-triol], the IC50 at human SGLT2 (setting [1]) is less than 1000 nM; on human SGLT1 (setting [1]), more than 10000 nM.
In the case of `CCc1ccc(Cc2cc([C@@H]3O[C@H](CO)[C@@H](O)[C@H](O)[C@H]3O)c(OCCOC3CCCC3)cc2Cl)cc1` [Compound BG, (2S,3R,4R,5S,6R)-2-(4-chloro-2-(2-(cyclopentyloxy)ethoxy)-5-(4-ethylbenzyl)phenyl)-6-(hydroxymethyl)tetrahydro-2H-pyran-3,4,5-triol], the IC50 at human SGLT2 (setting [1]) was less than 1000 nM; on human SGLT1 (setting [1]), more than 10000 nM.
For the molecule `CCOc1ccc(Cc2cc([C@@H]3O[C@H](CO)[C@@H](O)[C@H](O)[C@H]3O)c(CCOCCF)cc2Cl)cc1` [Compound BH, (2S,3R,4R,5S,6R)-2-(4-chloro-5-(4-ethoxybenzyl)-2-(2-(2-fluoroethoxy)ethyl)phenyl)-6-(hydroxymethyl)tetrahydro-2H-pyran-3,4,5-triol], the IC50 at human SGLT2 (setting [1]) is less than 1000 nM; at human SGLT1 (setting [1]), 1000 to 10000 nM.
For the molecule `CC#CCOCCCc1cc(Cl)c(Cc2ccc(OCC)cc2)cc1[C@@H]1O[C@H](CO)[C@@H](O)[C@H](O)[C@H]1O` [Compound BO, (2S,3R,4R,5S,6R)-2-(2-(3-(but-2-ynyloxy)propyl)-4-chloro-5-(4-ethoxybenzyl)phenyl)-6-(hydroxymethyl)tetrahydro-2H-pyran-3,4,5-triol], the IC50 on human SGLT2 (setting [1]) was less than 1000 nM; at human SGLT1 (setting [1]), more than 10000 nM.
For `CCc1ccc(Cc2cc([C@@H]3O[C@H](CO)[C@@H](O)[C@H](O)[C@H]3O)c(OCCOC(F)(F)F)cc2Cl)cc1` [Compound BQ, (2S,3R,4R,5S,6R)-2-(4-chloro-5-(4-ethylbenzyl)-2-(2-(trifluoromethoxy)ethoxy)phenyl)-6-(hydroxymethyl)tetrahydro-2H-pyran-3,4,5-triol], in that order: less than 1000 nM and more than 10000 nM.
As for `CCc1ccc(Cc2cc([C@@H]3O[C@H](CO)[C@@H](O)[C@H](O)[C@H]3O)c(OCCOCC(F)(F)F)cc2Cl)cc1` [Compound BS, (2S,3R,4R,5S,6R)-2-(4-chloro-5-(4-ethylbenzyl)-2-(2-(2,2,2-trifluoroethoxy)ethoxy)phenyl)-6-(hydroxymethyl)tetrahydro-2H-pyran-3,4,5-triol], the IC50 at human SGLT2 (setting [1]) is less than 1000 nM; on human SGLT1 (setting [1]), more than 10000 nM.
As to `CCc1ccc(Cc2cc([C@@H]3O[C@H](CO)[C@@H](O)[C@H](O)[C@H]3O)c(COCCF)cc2Cl)cc1` [Compound BZ, (2S,3R,4R,5S,6R)-2-(4-chloro-5-(4-ethylbenzyl)-2-((2-fluoroethoxy)methyl)phenyl)-6-(hydroxymethyl)tetrahydro-2H-pyran-3,4,5-triol], the figures for the IC50 at human SGLT2 (setting [2]) and at human SGLT1 (setting [2]) were less than 1000 nM and more than 10000 nM, respectively.
For `CCc1ccc(Cc2cc([C@@H]3O[C@H](CO)[C@@H](O)[C@H](O)[C@H]3O)c(COCC(C)(F)F)cc2Cl)cc1` [Compound CB, (2S,3R,4R,5S,6R)-2-(4-chloro-2-((2,2-difluoropropoxy)methyl)-5-(4-ethylbenzyl)phenyl)-6-(hydroxymethyl)tetrahydro-2H-pyran-3,4,5-triol], in that order: less than 1000 nM and more than 10000 nM.
For `C#CCOCc1cc(Cl)c(Cc2ccc(OCC)cc2)cc1[C@@H]1O[C@H](CO)[C@@H](O)[C@H](O)[C@H]1O` [Compound CC, (2S,3R,4R,5S,6R)-2-(4-chloro-5-(4-ethoxybenzyl)-2-((prop-2-ynyloxy)methyl)phenyl)-6-(hydroxymethyl)tetrahydro-2H-pyran-3,4,5-triol], the IC50 on human SGLT2 (setting [1]) was less than 1000 nM; at human SGLT1 (setting [1]) it was more than 10000 nM.
For `C#CCOCc1cc(Cl)c(Cc2ccc(OCC)cc2)cc1[C@@H]1O[C@H](COC(C)=O)[C@@H](O)[C@H](O)[C@H]1O` [Compound CD, ((2R,3S,4R,5R,6S)-6-(4-chloro-5-(4-ethoxybenzyl)-2-((prop-2-ynyloxy)methyl)phenyl)-3,4,5-trihydroxytetrahydro-2H-pyran-2-yl)methyl acetate], in that order: less than 1000 nM and more than 10000 nM.
Consider `C=CCOCc1cc(Cl)c(Cc2ccc(CC)cc2)cc1[C@@H]1O[C@H](CO)[C@@H](O)[C@H](O)[C@H]1O` [Compound I, (2S,3R,4R,5S,6R)-2-(2-(allyloxymethyl)-4-chloro-5-(4-ethylbenzyl)phenyl)-6-(hydroxymethyl)tetrahydro-2H-pyran-3,4,5-triol], for which the results for the IC50 at human SGLT2 (setting [2]) and on human SGLT1 (setting [2]) were less than 1000 nM and more than 10000 nM, respectively.

(Values after US7838498B2, “Benzylic glycoside derivatives and methods of use” (Theracos, Inc., priority 2007, dated 2010).)
